We go through 24 compounds from patent US10543212B2, “Substituted amines for treating cardiac diseases” (Cardurion Pharmaceuticals, LLC, priority 2017, dated 2020).

For one test, the target named is T1, Full-length, GST-tagged, human CaMKIIδ (Homo sapiens, UniProt Q13557).
T1 construct: Full-Length, Glutathione-S-Transferase(GST)-Tagged, Human CaMKIIδ was purchased from Carna Biosciences; purchased Carna Biosciences 02-111
T1 sequence (Q13557 1-478 isoform Q13557-12): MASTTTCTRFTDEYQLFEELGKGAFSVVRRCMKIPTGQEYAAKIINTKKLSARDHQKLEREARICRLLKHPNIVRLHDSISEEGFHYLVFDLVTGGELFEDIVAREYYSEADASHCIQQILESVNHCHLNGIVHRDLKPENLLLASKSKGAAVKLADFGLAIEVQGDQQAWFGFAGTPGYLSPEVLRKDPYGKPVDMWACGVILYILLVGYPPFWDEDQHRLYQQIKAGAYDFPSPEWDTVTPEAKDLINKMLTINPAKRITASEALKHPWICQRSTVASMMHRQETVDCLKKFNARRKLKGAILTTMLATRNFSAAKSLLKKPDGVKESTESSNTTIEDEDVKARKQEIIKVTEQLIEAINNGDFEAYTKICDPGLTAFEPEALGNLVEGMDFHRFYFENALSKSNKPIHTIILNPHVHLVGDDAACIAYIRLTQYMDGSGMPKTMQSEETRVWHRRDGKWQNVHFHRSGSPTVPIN
The experiment in a line: CaMKIIδ binding assay (TR-FRET with BODIPY-labeled probe ligand). To be noted: CaMKIIδ binding assay, results of Table 2. In a few lines: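 Compounds were tested as 4-fold, eight-point series for 1 hr at room temperature, and IC50 was obtained by logistic fitting against a 3 μM parent-compound control. Signal came from displacement of a 300 nM BODIPY ligand from 0.5 nM GST-CaMKIIδ, detected via Tb-anti-GST in calmodulin/Ca2+ (pH 7.6).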
On the technique in general: In TR-FRET formats the signal depends on donor and acceptor labels being close together.
Take `COc1cc2c(cc1Nc1ncc(-c3ccc(Cl)c(O[C@@H](C)Cn4cnnn4)c3)cn1)CN(CC1COC1)CC2` [Example 499, (S)-N-(5-(3-((1-(1H-tetrazol-1-yl)propan-2-yl)oxy)-4-chlorophenyl)pyrimidin-2-yl)-6-methoxy-2-(oxetan-3-ylmethyl)-1,2,3,4-tetrahydroisoquinolin-7-amine]: the IC50 is under 10 nM.

`COc1cc2c(cc1Nc1ncc(-c3ccc(Cl)c(O[C@@H](C)Cn4cnnn4)c3)cn1)C(=O)N(C1CCC1)C2` [Example 441, (S)-6-((5-(3-((1-(1H-tetrazol-1-yl)propan-2-yl)oxy)-4-chlorophenyl)pyrimidin-2-yl)amino)-2-cyclobutyl-5-methoxyisoindolin-1-one] yielded an IC50 of 10 to 100 nM.

The compound `C[C@@H](Cn1cnnn1)Oc1cc(-c2cnc(Nc3cn(C4CCN(C5CCN(C6CC6)CC5)CC4)nc3C(F)(F)F)nc2)ccc1Cl` [Example 558, (S)-5-(3-((1-(1H-tetrazol-1-yl)propan-2-yl)oxy)-4-chlorophenyl)-N-(1-(1′-cyclopropyl-[1,4′-bipiperidin]-4-yl)-3-(trifluoromethyl)-1H-pyrazol-4-yl)pyrimidin-2-amine] gave an IC50 of under 10 nM.

Take `C[C@@H](Cn1cnnn1)Oc1cc(-c2cnc(Nc3cc(N4CCC(N5CCOCC5)CC4)cnc3OCC(F)(F)F)nc2)ccc1Cl` [Example 581, (S)-5-(3-((1-(1H-tetrazol-1-yl)propan-2-yl)oxy)-4-chlorophenyl)-N-(5-(4-morpholinopiperidin-1-yl)-2-(2,2,2-trifluoroethoxy)pyridin-3-yl)pyrimidin-2-amine]: the IC50 was under 10 nM.

In turn, `COc1cc2c(cc1Nc1ncc(-c3ccc(Cl)c(O[C@@H](C)Cn4cnnn4)c3)cn1)CN(C(=O)C(C)(C)O)CC2` [Example 521, (S)-1-(7-((5-(3-((1-(1H-tetrazol-1-yl)propan-2-yl)oxy)-4-chlorophenyl)pyrimidin-2-yl)amino)-6-methoxy-3,4-dihydroisoquinolin-2(1H)-yl)-2-hydroxy-2-methylpropan-1-one] came in with an IC50 of 10 to 100 nM.

In the case of `COc1cnc(C2CCOCC2)cc1Nc1ncc(-c2ccc(Cl)c(O[C@@H](C)Cn3cnnn3)c2)cn1` [Example 517, (S)-5-(3-((1-(1H-tetrazol-1-yl)propan-2-yl)oxy)-4-chlorophenyl)-N-(5-methoxy-2-(tetrahydro-2H-pyran-4-yl)pyridin-4-yl)pyrimidin-2-amine], the IC50 is 10 to 100 nM.

The test is the same for the next values; noted with them: CaMKIIδ binding assay; activity class per Table 2.
With `C[C@@H](Cn1cnnn1)Oc1cc(-c2cnc(Nc3cn(CC4(O)CCNCC4)nc3C(F)(F)F)nc2)ccc1Cl` [Example 882, (S)-4-((4-((5-(3-((1-(1H-tetrazol-1-yl)propan-2-yl)oxy)-4-chlorophenyl)pyrimidin-2-yl)amino)-3-(trifluoromethyl)-1H-pyrazol-1-yl)methyl)piperidin-4-ol], the IC50 was under 10 nM.

`CCn1ncc(Nc2ncc(-c3ccc(Cl)c(O[C@@H](C)Cn4cnnn4)c3)cn2)c1C(=O)N1CCC(N2CCOCC2)CC1` [Example 880, (S)-(4-((5-(3-((1-(1H-tetrazol-1-yl)propan-2-yl)oxy)-4-chlorophenyl)pyrimidin-2-yl)amino)-1-ethyl-1H-pyrazol-5-yl) (4-morpholinopiperidin-1-yl)methanone] registered an IC50 of at least 100 nM.

The compound `C[C@@H](Cn1cnnn1)Oc1cc(-c2cnc(Nc3cn(CC4(O)CCN(C5CCC5)CC4)nc3OCC(F)(F)F)nc2)ccc1Cl` [Example 908, (S)-4-((4-((5-(3-((1-(1H-tetrazol-1-yl)propan-2-yl)oxy)-4-chlorophenyl)pyrimidin-2-yl)amino)-3-(2,2,2-trifluoroethoxy)-1H-pyrazol-1-yl)methyl)-1-cyclobutylpiperidin-4-ol] showed an IC50 of under 10 nM.

The same test, now with this note: Table 2; CaMKIIδ binding assay, activity given as class A/B/C.
`C[C@@H](Cn1cnnn1)Oc1cc(-c2cnc(Nc3cn([C@H]4CC[C@@H](N5CC(O)(C(F)(F)F)C5)CC4)nc3C(F)(F)F)nc2)ccc1Cl` [Example 856, 1-(cis-4-(4-((5-(3-(((S)-1-(1H-tetrazol-1-yl)propan-2-yl)oxy)-4-chlorophenyl)pyrimidin-2-yl)amino)-3-(trifluoromethyl)-1H-pyrazol-1-yl)cyclohexyl)-3-(trifluoromethyl)azetidin-3-ol] had an IC50 of 10 to 100 nM.

Compound `C[C@@H](Cn1cnnn1)Oc1cc(-c2cnc(Nc3cn(CC4(O)CCN(C(=O)OC(C)(C)C)CC4)nc3C(F)(F)F)nc2)ccc1Cl` [Example 874, tert-butyl (S)-4-((4-((5-(3-((1-(1H-tetrazol-1-yl)propan-2-yl)oxy)-4-chlorophenyl)pyrimidin-2-yl)amino)-3-(trifluoromethyl)-1H-pyrazol-1-yl)methyl)-4-hydroxypiperidine-1-carboxylate] registered an IC50 of 10 to 100 nM.

`C[C@@H](Cn1cnnn1)Oc1cc(-c2cnc(Nc3cn(CC(F)F)nc3OCC(F)(F)F)nc2)ccc1Cl` [Example 760, (S)-5-(3-((1-(1H-tetrazol-1-yl)propan-2-yl)oxy)-4-chlorophenyl)-N-(1-(2,2-difluoroethyl)-3-(2,2,2-trifluoroethoxy)-1H-pyrazol-4-yl)pyrimidin-2-amine] registered an IC50 of under 10 nM.

In turn, `C[C@@H](Cn1cnnn1)Oc1cc(-c2cnc(Nc3cn(C)nc3OCC(F)(F)F)nc2)ccc1Cl` [Example 759, (S)-5-(3-((1-(1H-tetrazol-1-yl)propan-2-yl)oxy)-4-chlorophenyl)-N-(1-methyl-3-(2,2,2-trifluoroethoxy)-1H-pyrazol-4-yl)pyrimidin-2-amine] had an IC50 of under 10 nM.

As to `C[C@@H](Cn1cnnn1)Oc1cc(-c2cnc(Nc3cn([C@H]4CC[C@@H](N5CCOCC5)CC4)nc3OCC(F)F)nc2)ccc1F` [Example 834, 5-(3-(((S)-1-(1H-tetrazol-1-yl)propan-2-yl)oxy)-4-fluorophenyl)-N-(3-(2,2-difluoroethoxy)-1-(cis-4-morpholinocyclohexyl)-1H-pyrazol-4-yl)pyrimidin-2-amine], the IC50 is 10 to 100 nM.

Still in this test, the particulars now being: Table 2; activity class for CaMKIIδ.
For `C[C@@H](Cn1cnnn1)Oc1cc(-c2cnc(Nc3cn(CCOCCO)nc3C(F)(F)F)nc2)ccc1Cl` [Example 620, (S)-2-(2-(4-((5-(3-((1-(1H-tetrazol-1-yl)propan-2-yl)oxy)-4-chlorophenyl)pyrimidin-2-yl)amino)-3-(trifluoromethyl)-1H-pyrazol-1-yl)ethoxy)ethan-1-ol], the IC50 lay in the range of 10 to 100 nM.

Take `C[C@@H](Cn1cnnn1)Oc1cc(-c2cnc(Nc3cn(CC(O)C(F)(F)F)nc3C(F)(F)F)nc2)ccc1Cl` (stereo partly drawn) [Example 728, 3-(4-((5-(3-(((S)-1-(1H-tetrazol-1-yl)propan-2-yl)oxy)-4-chlorophenyl)pyrimidin-2-yl)amino)-3-(trifluoromethyl)-1H-pyrazol-1-yl)-1,1,1-trifluoropropan-2-ol]: the IC50 was 10 to 100 nM.

With `COc1nc(N2CCN(C3CCOCC3)CC2)ccc1Nc1ncc(-c2ccc(Cl)c(O[C@@H](C)Cn3cnnn3)c2)cn1` [Example 616, (S)-5-(3-((1-(1H-tetrazol-1-yl)propan-2-yl)oxy)-4-chlorophenyl)-N-(2-methoxy-6-(4-(tetrahydro-2H-pyran-4-yl)piperazin-1-yl)pyridin-3-yl)pyrimidin-2-amine], the IC50 is under 10 nM.

In turn, `COc1cc(N2C[C@@H]3C[C@H]2CN3C2CCOCC2)ccc1Nc1ncc(-c2ccc(Cl)c(O[C@@H](C)Cn3cnnn3)c2)cn1` [Example 653, 5-(3-(((S)-1-(1H-tetrazol-1-yl)propan-2-yl)oxy)-4-chlorophenyl)-N-(2-methoxy-4-((1S,4S)-5-(tetrahydro-2H-pyran-4-yl)-2,5-diazabicyclo[2.2.1]heptan-2-yl)phenyl)pyrimidin-2-amine] came in with an IC50 of 10 to 100 nM.

Consider `C[C@@H](Cn1cnnn1)Oc1cc(-c2cnc(Nc3cn(C4CCN(C5COC5)C4)nc3C(F)(F)F)nc2)ccc1Cl` (stereo partly drawn) [Example 619, 5-(3-(((S)-1-(1H-tetrazol-1-yl)propan-2-yl)oxy)-4-chlorophenyl)-N-(1-(1-(oxetan-3-yl)pyrrolidin-3-yl)-3-(trifluoromethyl)-1H-pyrazol-4-yl)pyrimidin-2-amine], for which the IC50 is 10 to 100 nM.

On to `C[C@@H](Cn1cnnn1)Oc1cc(-c2cnc(Nc3cn(C4CCCCO4)nc3OCC(F)(F)F)nc2)ccc1Cl` (stereo partly drawn) [Example 678, 5-(3-(((S)-1-(1H-tetrazol-1-yl)propan-2-yl)oxy)-4-chlorophenyl)-N-(1-(tetrahydro-2H-pyran-2-yl)-3-(2,2,2-trifluoroethoxy)-1H-pyrazol-4-yl)pyrimidin-2-amine], for which the IC50 is under 10 nM.

For `COc1nc(N2CCCNCC2)ccc1Nc1ncc(-c2ccc(Cl)c(O[C@@H](C)Cn3cnnn3)c2)cn1` [Example 666, (S)-N-(6-(1,4-diazepan-1-yl)-2-methoxypyridin-3-yl)-5-(3-((1-(1H-tetrazol-1-yl)propan-2-yl)oxy)-4-chlorophenyl)pyrimidin-2-amine], the IC50 is under 10 nM.

`COc1ccc(N2CCN(CC(N)=O)CC2)cc1Nc1ncc(-c2ccc(Cl)c(O[C@@H](C)Cn3cnnn3)c2)cn1` [Example 686, (S)-2-(4-(3-((5-(3-((1-(1H-tetrazol-1-yl)propan-2-yl)oxy)-4-chlorophenyl)pyrimidin-2-yl)amino)-4-methoxyphenyl)piperazin-1-yl)acetamide] yielded an IC50 of under 10 nM.

Regarding `C[C@@H](CO)Cn1cc(Nc2ncc(-c3ccc(Cl)c(O[C@@H](C)Cn4cnnn4)c3)cn2)c(C(F)(F)F)n1` [Example 730, (R)-3-(4-((5-(3-(((S)-1-(1H-tetrazol-1-yl)propan-2-yl)oxy)-4-chlorophenyl)pyrimidin-2-yl)amino)-3-(trifluoromethyl)-1H-pyrazol-1-yl)-2-methylpropan-1-ol], the IC50 lay within 10 to 100 nM.

The compound `C[C@@H](Cn1cnnn1)Oc1cc(-c2cnc(Nc3cn(CC4CCCN4C4CCOCC4)nc3C(F)(F)F)nc2)ccc1Cl` (stereo partly drawn) [Example 611, 5-(3-(((S)-1-(1H-tetrazol-1-yl)propan-2-yl)oxy)-4-chlorophenyl)-N-(1-((1-(tetrahydro-2H-pyran-4-yl)pyrrolidin-2-yl)methyl)-3-(trifluoromethyl)-1H-pyrazol-4-yl)pyrimidin-2-amine] yielded an IC50 of under 10 nM.

What is called IC50 is the concentration needed to halve the response being measured. Higher therefore signals lower potency.
